# Experimental data from patent publication US10780067B2, “Endoxifen for local transdermal therapy to the breast” (Northwestern University, priority 2016, dated 2020).
# Several values for one entry are separate records, joined by “and”; a condition that tells them apart may be missing. Equal values may be shown once.
# Key:
# DCIS lesions = assay: Ki-67 labeling index by immunohistochemistry, phase II presurgical trial of 4-OHT gel vs oral tamoxifen; type: in vivo, human; details: for Ki-67 baseline: Ki-67 LI of DCIS lesions before treatment
# Source text: Women at risk for thromboembolic disease were excluded, as were those with a history of exogenous hormone use within the past month, and tamoxifen or raloxifene use within the past two years. Randomization was stratified by menopausal status, and enrollment site. Initially, the FDA required exclusions for grade 3 and comedo-type DCIS, mammographic DCIS size of >5 cm, and palpable lesions; these were removed following enrollment of nine subjects in the first year.
# (§1) All participants provided informed consent. Baseline assessments included a history and physical, explanation of gel application, completion of the Breast Cancer Prevention Trial Eight Symptom Scale (BESS) questionnaire, collection of a venous blood sample, and collection of nipple aspirate fluid (NAF) from NAF yielders. […] Treatment began within 5 days post-randomization and ended on the day prior to surgical resection. Participants were instructed to apply the gel to the entire skin envelope of each breast each morning, after a shower. Duration of therapy was 6-10 weeks. Compliance was assessed through participant diaries, counts of returned pills and of returned gel canisters. Participants who took at least 80% of the prescribed dose were considered compliant.
# (§2) Assessments similar to those performed at baseline were repeated on the day prior to, or on the morning of surgery. During surgery, breast adipose tissue from the surgical sample was snap frozen and stored at −80° C. for measurement of tamoxifen and metabolites. The samples were obtained from a location adjacent to the DCIS lesion to provide uniformity between participants undergoing breast conservation and mastectomy. The paraffin block of the core and excision samples were acquired by the recruiting institution and 10 sections from each specimen were submitted to the NU Pathology Core Facility. The sections were cut in batches (with pre- and post-treatment samples in the same batch), shipped cold, and processed for immunohistochemistry within four weeks.
# (§3) Secondary endpoints were 1) to compare concentrations of tamoxifen and its metabolites [4-OHT, endoxifen, N-desmethyl tamoxifen (NDT)] in breast tissue, plasma and NAF obtained on the day of surgery; 2) to assess changes in known tamoxifenmodulated pathways in the breast (COX-2 and maspin protein expression, [19,20]) and plasma (SHBG, IGF-1 [14]). Side effect endpoints were 1) the incidence of hot flashes at baseline and before surgery; 2) changes in coagulation related proteins in women on the gel and the oral arms from baseline to immediately before surgery.
# (§4) Immunohistochemical (IHC) assessment of these markers was performed on paraffin embedded sections of the core and excision specimens, using standard IHC techniques and MCF7, HCT116 and H292 cells as controls. For maspin we used primary mouse monoclonal antibody (Clone-G167-70,BD Pharmingen, San Jose, Calif.), dilution 1:200; for COX-2, primary mouse monoclonal antibody (Clone-CX-294, Dako, Denmark), dilution 1:100-; and for Ki67, primary mouse monoclonal antibody (Clone-MIB-1, Dako, Denmark), dilution 1:100-antigen. Dako Envision Plus system HRP labeled polymer for 20 min at 37° C. was used as the detection system. Scoring was performed on DCIS lesions only, with manual counting of positively stained DCIS cells. The Ki67 LI was assessed on an average of 300 DCIS cells at 40× magnification. The H score system (Score range: 0-300) was used for COX-2 and maspin markers by a single observer who was blinded to treatment status, with random verification of 20% of slides by a pathologist (PK).
# COX-2 = COX-2 expression (H score) by immunohistochemistry, presurgical trial; type: in vivo, human; details: mean ± SD
# Description: as §2, §3
# as §4, with “Scoring was performed on DCIS lesions only, with manual counting of positively stained DCIS cells.” left out, “The H score system (Score range: 0-300) was used for COX-2 and maspin markers by a single observer who was blinded to treatment status, with random verification of 20% of slides by a pathologist (PK).” left out
# maspin = assay: Maspin expression (H score) by immunohistochemistry, presurgical trial; type: in vivo, human; details: mean ± SD
# Description: as §2, §3
# as §4, with “Scoring was performed on DCIS lesions only, with manual counting of positively stained DCIS cells.” left out, “The H score system (Score range: 0-300) was used for COX-2 and maspin markers by a single observer who was blinded to treatment status, with random verification of 20% of slides by a pathologist (PK).” left out
# [1] = Plasma, breast adipose tissue and NAF concentrations of tamoxifen and its metabolites (LC-MS/MS), presurgical trial; type: in vivo, human
# Source text: as §1, §2
# (Z)-tamoxifen, (Z)-NDT, (E) and (Z)-4-OHT, and (Z)-endoxifen were measured by liquid chromatography-tandem mass spectrometry with a turbo ion spray interface operating in positive mode (API 3000; AB SCIEX, Foster City, Calif.). […] For analysis of NAF, samples were collected in a capillary tube and diluted with 200 μL of phosphate buffered saline; 100 μL of the diluted NAF sample was used for analysis. Breast adipose tissue samples, 25 mg, were minced and treated with 125 μL of […] and extracted as described above.
# Retention times for (Z)-tamoxifen, (Z)-NDT, (Z)-4-OHT, (E)-4-OHT and (Z)-endoxifen were 7.3, 6.8, 5.1, 4.7 and 4.5 min, respectively. […] In three participants, matched samples were not available: breast adipose tissue was not collected in two, and the plasma sample was missing in one.
# Since the fraction of E and Z isoforms of 4-OHT was of particular interest, we used an additional validated method to study plasma concentrations of these metabolites in a different laboratory (Eurofins Medinet, Chantilly, Va.): Plasma from blood samples collected in lithium-heparin tubes was frozen at −20° C., shipped in batches on dry ice to them Eurofins Medinet central laboratory; LC-MS/MS was used for the simultaneous determination of (E) 4-OHT and (Z) 4-OHT, with a lower limit of quantitation (LOQ) of 10 pg/mL and upper LOQ of 10,000 pg/mL. Eurofins Medinet developed and validated them method for BHR Pharma, in accordance with the FDA Guidance on Bioanalytical Method Validation.
# factor IX = assay: Plasma factor IX antigen ELISA, presurgical trial; type: in vivo, human; details: mean ± SD
# Description: Plasma samples collected with anticoagulant K3-EDTA were used for human IGF-1 and SHBG assays, and coagulation protein assays (factor VIII, factor IX, von Willebrand factor, and protein S)[23]. The human IGF-1 and SHBG assays were performed with Quantikine Enzyme-linked immunosorbent assay (ELISA) Kits (R&D Systems, Cat # DG100 for IGF-1, and Cat # DSHBGO for SHBG assay). The lower limit of detection was 56 pg/ml, and 5 pmol/L; % CV values were 4.3 and 5.6 for IGF-1, and SHBG assay, respectively. Factor VIII, and factor IX were determined with VisuLize™ antigen ELISA kits (Affinity Biologicals Inc.). von Willebrand factor was measured with immune-turbidimetric assay (Diagnostica Stago Inc. Cat #00518) by STAR analyzer, and total protein S was assayed with an ELISA kit (REAADSR Inc.)
# MCF7 xenograft = details: simulation using human PK; cited from earlier work
# [2] = at surgery after 6-10 weeks, mean ± SD, LLOQ 3 ng/g
smiles,measurement,setting,value
"CC/C(=C(\c1ccccc1)c1ccc(OCCN(C)C)cc1)c1ccccc1 [Tamoxifen, (Z)-tamoxifen]",Ki-67 post-treatment,"DCIS lesions; Ki-67 LI of DCIS lesions after 6-10 weeks, mean ± SD",3.2 ± 2.3%
same,Ki-67 baseline,DCIS lesions; mean ± SD,8.3%
same,Ki-67 baseline,"DCIS lesions; mean ± SD, listed as Oral-T",8.3 ± 5.2%
same,Ki-67 Changes from baseline,"DCIS lesions; Ki-67 LI of DCIS lesions, 6-10 weeks, mean ± SD",−5.1 ± 5.5%
same,mean reduction of Ki-67 LI post-therapy,"DCIS lesions; decrease from baseline in DCIS lesions, 6-10 weeks",5.1%
same,drop in Ki67-LI relative to baseline,"DCIS lesions; relative decrease, DCIS lesions",61%
same,COX-2 post-treatment,COX-2; DCIS lesions after 6-10 weeks,78.9 ± 63.5 H-score
same,COX-2 baseline,COX-2; DCIS lesions before treatment,67.2 ± 72.4 H-score
same,COX-2 Changes from baseline,"COX-2; DCIS lesions, 6-10 weeks",11.7 ± 109.8 H-score
same,Maspin post-treatment,maspin; DCIS lesions after 6-10 weeks,142 ± 69 H-score
same,Maspin baseline,maspin; DCIS lesions before treatment,107 ± 56 H-score
same,Maspin Changes from baseline,"maspin; DCIS lesions, 6-10 weeks",35 ± 71 H-score
same,"(E) 4-OHT concentration, plasma","[1]; after 6-10 weeks, mean ± SD, LLOQ 1 ng/mL",BQL
same,"(Z) Tamoxifen concentration, plasma","[1]; after 6-10 weeks, mean ± SD, LLOQ 20 ng/mL",90 ± 45 ng/mL
same,"(E) 4-OHT concentration, breast adipose tissue",[1]; [2],BQL
same,"(Z) Tamoxifen concentration, breast adipose tissue",[1]; [2],2959 ± 1035 ng/g
same,"plasma concentration of tamoxifen, individual participants","[1]; participants A, B and one with undetectable NAF levels, listed as oral-T",54 ng/mL and 94.3 ng/mL and 160 ng/mL
same,NAF concentration of endoxifen,[1]; post-treatment nipple aspirate fluid,undetectable
same,"NAF concentration of tamoxifen, individual participants","[1]; post-treatment nipple aspirate fluid, participants A, B, listed as oral-T",320 ng/mL and 182 ng/mL
same,"NAF concentration of 4-OHT ((Z) 4-OHT), individual participants","[1]; post-treatment nipple aspirate fluid, participants C, D",undetectable
same,% Factor IX post-treatment,factor IX; plasma after 6-10 weeks,87.0 ± 12.2%
same,% Factor IX baseline,factor IX; plasma before treatment,86.6 ± 8.8%
same,% Factor IX Changes from baseline,factor IX; plasma,0.4 ± 10.2%
same,"TGI at day 21, 20 mg/day oral",MCF7 xenograft,63%
